Measured values reported in patent US10857121B2, “Use of malononitrile compounds for protecting animals from parasites” (MERIAL INC., priority 2014, dated 2020).

Tests used:
Haematobia irritans [1] = assay: In vivo efficacy against Haematobia irritans in cattle, topical pour-on; settings: for % Efficacy vs. Haematobia irritans at 5 h: 5 h after infestation; for % Efficacy vs. Haematobia irritans at 24 h: 24 h after infestation
Protocol: A representative compound of the invention (II-35) was evaluated for efficacy against 20 Haematobia irritans in cattle when applied topically. Four treatment groups and one untreated control group containing four animals each were formed. Treatment Group 1 was an untreated control and Treatment Group 5 was a positive control group treated with a pour-on product containing 5% (w/v) cypermethrin (Cypermil Pour-on). The animals in Treatment Groups 2, 3 and 4 were treated with a pour-on composition containing compound (II-35) to deliver doses of 20 mg/kg, 10 mg/kg and 5 mg/kg body weight, respectively. The pour-on formulations comprised a mixture of 20% (w/v), 10% (w/v) and 5% (w/v) of the active dissolved in a carrier comprising 50% (v/v)N-methylpyrrolidone, 5% (v/v) dimethyl isosorbide and qs with Miglyol® 840. All animals were infested with approximately 200 Haematobia irritans flies on Days 1, 7, 14 and 21. As the source of flies was natural and the amount of flies decreased, the infestations On Days 28 and 35 animals were with approximately 100 horn flies due to a lack of flies. Additionally, Treatment Groups 3 and 5 were not infested on Day 35, due to the lack of flies. The flies were counted and recorded five hours following infestation and on the following day (at 24 h). The counts done on Day 2 were at 48 hours after treatment.
The % efficacy (% reduction) of the each treatment group compared with the untreated control group is shown in Tables 2 and 3 below and in FIG. 1.

Haematobia irritans [2] = assay: as above; settings: for % Efficacy vs. Haematobia irritans at 5 h: 5 h after infestation, Day 13

Q: How did the “% Efficacy vs. Haematobia irritans at 5 h” value (Haematobia irritans [1]; pour-on 5 mg/kg (Group 4), Day 1) turn out when `C#Cc1ccc(CC(C#N)(C#N)c2ccc(F)cc2)cc1` [II-35] was run?
A: 99.5%

Q: And the “% Efficacy vs. Haematobia irritans at 5 h” value (Haematobia irritans [1]; pour-on 5 mg/kg (Group 4), Day 7)?
A: 98.3%

Q: What about the “% Efficacy vs. Haematobia irritans at 5 h” value (Haematobia irritans [1]; pour-on 5 mg/kg (Group 4), Day 13) of the same molecule?
A: 93.2%

Q: What about the “% Efficacy vs. Haematobia irritans at 5 h” value (Haematobia irritans [1]; pour-on 5 mg/kg (Group 4), Day 21) of the same molecule?
A: 80.0%

Q: What about the “% Efficacy vs. Haematobia irritans at 5 h” value (Haematobia irritans [1]; pour-on 5 mg/kg (Group 4), Day 28) of the same molecule?
A: 64.1%

Q: What about the “% Efficacy vs. Haematobia irritans at 5 h” value (Haematobia irritans [1]; pour-on 5 mg/kg (Group 4), Day 35) of the same molecule?
A: 51.5%

Q: And the “% Efficacy vs. Haematobia irritans at 24 h” value (Haematobia irritans [1]; pour-on 5 mg/kg (Group 4), Day 2)?
A: 100.0%

Q: What about the “% Efficacy vs. Haematobia irritans at 24 h” value (Haematobia irritans [1]; pour-on 5 mg/kg (Group 4), Day 8) of the same molecule?
A: 99.7%

Q: And the “% Efficacy vs. Haematobia irritans at 24 h” value (Haematobia irritans [1]; pour-on 5 mg/kg (Group 4), Day 14)?
A: 100.0%

Q: What about the “% Efficacy vs. Haematobia irritans at 24 h” value (Haematobia irritans [1]; pour-on 5 mg/kg (Group 4), Day 22) of the same molecule?
A: 93.5%

Q: And the “% Efficacy vs. Haematobia irritans at 24 h” value (Haematobia irritans [1]; pour-on 5 mg/kg (Group 4), Day 29)?
A: 95.5%

Q: And the “% Efficacy vs. Haematobia irritans at 24 h” value (Haematobia irritans [1]; pour-on 5 mg/kg (Group 4), Day 36)?
A: 88.1%

Q: And the “efficacy vs. Haematobia irritans” value (Haematobia irritans [1]; pour-on 5 mg/kg (Group 4), until Day 13, after 5 hours post infestation)?
A: above 93%

Q: What about the “efficacy vs. Haematobia irritans” value (Haematobia irritans [1]; pour-on 5 mg/kg (Group 4), until Day 29, after 24 hours post infestation) of the same molecule?
A: above 93%

Q: What about the “% Efficacy vs. Haematobia irritans at 5 h” value (Haematobia irritans [1]; pour-on 10 mg/kg (Group 3), Day 1) of the same molecule?
A: 98.9%

Q: And the “% Efficacy vs. Haematobia irritans at 5 h” value (Haematobia irritans [1]; pour-on 10 mg/kg (Group 3), Day 7)?
A: 98.2%

Q: What about the “% Efficacy vs. Haematobia irritans at 5 h” value (Haematobia irritans [1]; pour-on 10 mg/kg (Group 3), Day 21) of the same molecule?
A: 68.3%

Q: And the “% Efficacy vs. Haematobia irritans at 5 h” value (Haematobia irritans [1]; pour-on 10 mg/kg (Group 3), Day 28)?
A: 65.6%

Q: What about the “% Efficacy vs. Haematobia irritans at 24 h” value (Haematobia irritans [1]; pour-on 10 mg/kg (Group 3), Day 2) of the same molecule?
A: 100.0%

Q: And the “% Efficacy vs. Haematobia irritans at 24 h” value (Haematobia irritans [1]; pour-on 10 mg/kg (Group 3), Day 8)?
A: 100.0%

Q: What about the “% Efficacy vs. Haematobia irritans at 24 h” value (Haematobia irritans [1]; pour-on 10 mg/kg (Group 3), Day 14) of the same molecule?
A: 100.0%

Q: And the “% Efficacy vs. Haematobia irritans at 24 h” value (Haematobia irritans [1]; pour-on 10 mg/kg (Group 3), Day 22)?
A: 93.1%

Q: What about the “% Efficacy vs. Haematobia irritans at 24 h” value (Haematobia irritans [1]; pour-on 10 mg/kg (Group 3), Day 29) of the same molecule?
A: 69.2%

Q: What about the “efficacy vs. Haematobia irritans” value (Haematobia irritans [1]; pour-on 10 mg/kg (Group 3), until Day 22, after 24 hours post infestation) of the same molecule?
A: above 93%

Q: And the “% Efficacy vs. Haematobia irritans at 5 h” value (Haematobia irritans [1]; pour-on 20 mg/kg (Group 2), Day 1)?
A: 97.8%

Q: What about the “% Efficacy vs. Haematobia irritans at 5 h” value (Haematobia irritans [1]; pour-on 20 mg/kg (Group 2), Day 7) of the same molecule?
A: 99.2%

Q: What about the “% Efficacy vs. Haematobia irritans at 5 h” value (Haematobia irritans [1]; pour-on 20 mg/kg (Group 2), Day 21) of the same molecule?
A: 86.6%

Q: And the “% Efficacy vs. Haematobia irritans at 5 h” value (Haematobia irritans [1]; pour-on 20 mg/kg (Group 2), Day 28)?
A: 85.0%

Q: And the “% Efficacy vs. Haematobia irritans at 5 h” value (Haematobia irritans [1]; pour-on 20 mg/kg (Group 2), Day 35)?
A: 65.8%

Q: What about the “% Efficacy vs. Haematobia irritans at 24 h” value (Haematobia irritans [1]; pour-on 20 mg/kg (Group 2), Day 2) of the same molecule?
A: 100.0%

Q: What about the “% Efficacy vs. Haematobia irritans at 24 h” value (Haematobia irritans [1]; pour-on 20 mg/kg (Group 2), Day 8) of the same molecule?
A: 98.3%

Q: And the “% Efficacy vs. Haematobia irritans at 24 h” value (Haematobia irritans [1]; pour-on 20 mg/kg (Group 2), Day 14)?
A: 100.0%

Q: What about the “% Efficacy vs. Haematobia irritans at 24 h” value (Haematobia irritans [1]; pour-on 20 mg/kg (Group 2), Day 22) of the same molecule?
A: 97.9%

Q: And the “% Efficacy vs. Haematobia irritans at 24 h” value (Haematobia irritans [1]; pour-on 20 mg/kg (Group 2), Day 29)?
A: 96.9%

Q: And the “% Efficacy vs. Haematobia irritans at 24 h” value (Haematobia irritans [1]; pour-on 20 mg/kg (Group 2), Day 36)?
A: 85.6%

Q: And the “efficacy vs. Haematobia irritans” value (Haematobia irritans [1]; pour-on 20 mg/kg (Group 2), until Day 13, after 5 hours post infestation)?
A: above 93%

Q: What about the “efficacy vs. Haematobia irritans” value (Haematobia irritans [1]; pour-on 20 mg/kg (Group 2), until Day 29, after 24 hours post infestation) of the same molecule?
A: above 93%

Q: What about the “% Efficacy vs. Haematobia irritans at 5 h” value (Haematobia irritans [2]; pour-on 10 mg/kg (Group 3)) of the same molecule?
A: 93.8%

Q: And the “efficacy vs. Haematobia irritans” value (Haematobia irritans [2]; pour-on 10 mg/kg (Group 3), until Day 13, after 5 hours post infestation)?
A: above 93%

Q: What about the “% Efficacy vs. Haematobia irritans at 5 h” value (Haematobia irritans [2]; pour-on 20 mg/kg (Group 2)) of the same molecule?
A: 97.7%
